Experimental data as given in US20150005253A1, “NOVEL COMBINATIONS FOR TREATING ACUTE MYELOID LEUKAEMIA OR CHRONIC MYELOID LEUKAEMIA” (SANOFI, priority 2012, published 2015).
Where two headings read alike, the source gives them in different places.

Key:
[1] = test system: erythroblastic BFU-E progenitors; assay: Normal myeloid progenitor cell clonogenic assay (BFU-E); assay type: cell-based; conditions: Homo sapiens, 336 h, median over normal myeloid progenitor samples, 14 days
Description: (§1) For in vitro studies, compound (A) was dissolved at 10 mM in DMSO and diluted in complete RPMI-1640 medium or in phenol red-free complete RPMI-1640 medium in sterile 96-well polystyrene cell culture plates. For in vivo studies, compound (A) was prepared for intravenous (IV) or intraperitoneal (IP) administration by mixing 22% PEG400 with 5% solutol and 73% […]. For oral administration, compound (A), was prepared in a generally regarded as safe (GRAS) formulation composed of 21% labrasol with 5% solutol and 74% HCL 0.001N. Solutions were kept on ice and administered as a bolus within 1 hour after formulation preparation. The volume of injection was 0.2 mL per mouse.
(§2) Fresh CD34^+ human bone marrow cells were washed twice in Iscove modified Dulbecco medium (IMDM) containing 10% FCS and resuspended in H4230 medium supplemented with 10% 5637-conditioned medium for CFU-GM growth, in H4435 medium for CFU-M growth, and in H4535 medium for BFU-E growth. H4230, H4435, and H4535 medium were purchased from Stem Cell Technologies. The cells were then plated in 35-mm Petri dishes and incubated in a humidified CO2 incubator (5% CO2, 37° C.) for 14 days. Colonies (>50 cells) were then scored under an inverted microscope.

CML-T1 = assay: Human chronic leukaemia CML-T1 implanted in SCID mice; assay type: in vivo; conditions: Cytarabine 200 mg/kg IP days 8, 12, 16; COMPOUND (A) 10 mg/kg IP days 8, 9, 11-17, 19; alone or combined
Description: Food and water were given ad libitum.
(§3) where T is the median time (in days) required for the treatment group tumors to reach a predetermined size (eg, 1000 mg), and C is the median time tumors to reach the same size (in days) for the vehicle group of each schedule. Tumor-free survivors are excluded from these calculations (cures are tabulated separately). T-C is the tumor growth delay and Td is the tumor doubling time in days. […] LCK-g values can be translated into an activity rating, according to the Southern Research Institute (SRI) criteria: […]

KG1 cells = assay: in vivo; assay type: in vivo; conditions: for CR / cures / log cell kill-gross (LCK-g): Compound (A) 20 mg/kg IV days 16-20, alone or combined; for tumor response, oral consolidation: after IV induction
Description: (§4) Solutions were kept on ice and administered as a bolus within 1 hour after formulation preparation. The volume of injection was 0.2 mL per mouse.
(§5) Eight-week-old female SCID mice were purchased from Charles River. The Committee of Animal Studies at Sanofi approved the protocol for animal experimentation. This protocol and all laboratory procedures comply with the French Legislation, which implements the European Directives. Animals were received at least one week before the experiment to allow acclimatization. The animals were kept under a natural daylight cycle and given food and water ad libitum.
(§6) When the tumor reached approximately 1000 mg, it was removed from the donor mouse, cut into fragments (2-3 mm diameter), placed in a phosphate buffer saline, and implanted bilaterally with a 12-gauge trocar. Tumor fragments were propagated until stable growth behavior occurred (a stable doubling time), before using in experiments. Distribution was performed using body weight and tumor weight criteria with the “Newlab oncology” software (Newlab).
(§7) When ΔT/ΔC values are negative, the percentage of regression is evaluated. Partial regression (PR) is defined as a decrease ≧50% of tumor volume at treatment initiation. Complete regression (CR) is defined as a decrease in tumor volume below the limit of palpation (T=10 mm^3). At study end, the number of tumor-free survivors (TFS), which correspond to mice without any detectable tumor, was determined. Both drug-related deaths and maximum percent relative mean net body weight loss were also determined. Median times to reach tumor target size were compared using Log-Rank or Kruskal-Wallis multiple comparisons tests. A body weight loss nadir (mean of group)>20% or 10% drug-related deaths were considered to indicate an excessive toxic dosage.
as §3

in vivo = assay type: in vivo; conditions: female, SCID, mouse, in vivo; daily IV
Description: as §4, §5, §6, §7, §3

[2] = test system: granulomonocytic progenitors (CFU-GM); assay: Normal myeloid progenitor cell clonogenic assay (CFU-GM); assay type: cell-based; conditions: Homo sapiens, 336 h, median over normal myeloid progenitor samples, 14 days
Description: as §1, §2

[3] = test system: leukemia progenitors (CFU-L) of AML patient samples; assay: Myeloid leukemic cell clonogenic assay on AML patient samples (ex vivo); assay type: cell-based, human; conditions: for IC50: Homo sapiens
Description: Hematological malignant cell lines were obtained from Deutsche Sammlung von Mikroorganismen and Zellkulturen GmbH (Braunschweig) and cultured in complete RPMI-1640 medium containing 10% fetal bovine serum and antibiotics. Primary AML cells were obtained from patients seen at Toulouse Hospital (Toulouse, France) at the time of diagnosis and after written informed consent. All samples were evaluated for karyotypic abnormalities, immunologic phenotype, FLT3-acquired activating mutations (internal tandem duplications and kinase domain mutations), t (Mizuki M. et al., Blood 2000 96: 3907-3914; Fiebig H. H. et al., Eur. J. Cancer 2004, 40: 802-820) and inv (Bonnet D. et al., Nat Med 1997 3: 730-737) mutations, and c-kit receptor-acquired mutations. Samples were stored in the Hemopathies Inserm Midi-Pyrénées (HIMIP) collection. Mononuclear cells were separated through a Ficoll-Hypaque density gradient.
as §1
The assay is as described by Récher and colleagues (Récher C. et al., Blood 2005; 105:2527-2534) with slight modifications. Briefly, cells were washed twice in PBS and suspended at 1×10^5 cell/mL in H4230 medium (Stem Cell Technologies) supplemented with 10% 5637-conditioned medium and appropriate dilutions of COMPOUND (A). Cells were then plated on 35 mm petri dishes and incubated at 37° C. in 5% CO2, fully humidified atmosphere. After 7 days, colonies (more than 20 cells) and clusters (more than 5 cells) were scored using an inverted microscope.

KG1a cells = assay: Tumor implantation study in SCID mice bearing KG1a cells; assay type: in vivo; conditions: for ΔT/ΔC: evaluated on day 32; for cures: day 120
Description: as §1, §5
All tumor cell lines were obtained from DSMZ GmbH. Initially, cell lines were cultured in RPMI 1640 containing 10% FCS and antibiotics, and implanted subcutaneously in SCID mice (10^7 cells/mouse). When the tumor reached approximately 1000 mg, it was removed from the donor mouse, cut into fragments (2-3 mm diameter), placed in a phosphate buffer saline, and implanted bilaterally with a 12-gauge trocar. Tumor fragments were propagated until stable growth behavior occurred (a stable doubling time), before using in experiments. Distribution was performed using body weight and tumor weight criteria with the “Newlab oncology” software (Newlab).
as §7

[4] = Cytarabine 31.5 mg/kg IP days 16-22
[5] = very advanced KG1 tumors (1000 mg), 25 mg/kg IV daily day 22-30

What does the source list for `CC(C)(C)NC(=O)Nc1nc2nc(Nc3ccc4nsnc4c3)ncc2cc1-c1c(Cl)cccc1Cl` [Compound (A), N-[2-(2,1,3-benzothiadiazol-5-ylamino)-6-(2,6-dichlorophenyl)pyrido[2,3-d]pyrimidin-7-yl]-N′-(1,1-dimethylethyl)-urea]?
IC50 [1]: 219 nM; LCK-g (CML-T1): 0.1; activity rating (KG1 cells; 10 mg/kg IV): active; animals with CR (KG1 cells; 10 mg/kg/day IV): one of six; ΔT/ΔC (KG1 cells; 10 mg/kg/day IV, day 19 to day 38): 17.45%; activity rating (KG1 cells; 25 mg/kg IV): highly active (ΔT/ΔC<0: highly active); animals with complete regressions (CR) (KG1 cells; 25 mg/kg/day IV (MTD)): 6 out of 6; animals with cures (KG1 cells; 25 mg/kg/day IV (MTD)): 6 out of 6; DT/DC (KG1 cells; 25 mg/kg/day IV, day 19 to day 38): < −14.27%; body weight loss (KG1 cells; 25 mg/kg/day IV, day 29, reversible): 18.2%; CR (KG1 cells; [4]): 83%; cures (KG1 cells; [4]): no; log cell kill-gross (LCK-g) (KG1 cells; [4]): 2.4; tumor response, oral consolidation (KG1 cells; oral 1x50 mg/kg daily day 31-95): tumors re-grew slowly; tumor response, oral consolidation (KG1 cells; oral 2x40 mg/kg daily day 31-95): complete disappearance of tumors; animals cured (KG1 cells; oral 2x40 mg/kg/day): None; maximum body weight loss (KG1 cells; oral 2x40 mg/kg/day, day 28, rapidly reversible): 14.4%; efficacy (in words) (KG1 cells; oral once a day 19.8 mg/kg): no efficacy; ΔT/ΔC (KG1 cells; oral once a day 19.8 mg/kg): 41.99%; DT/DC (KG1 cells; oral once a day 31.5 mg/kg): 19.72%; DT/DC (KG1 cells; oral once a day 50 mg/kg): 7.61%; ΔT/ΔC (KG1 cells; oral, two daily dosages of 40 mg/kg/day, day 15 to day 40): −3.80%; activity rating, IV induction phase (KG1 cells; [5]): highly active (ΔT/ΔC<0: highly active); tumor response, IV induction phase (KG1 cells; [5]): strong tumor regressions; MTD (in vivo): 25 mg/kg; IC50 [2]: 788 nM; IC50 ([3]; range over AML patient samples, read-out: IC50 values ranging (all tested samples)): ≥ 3.8 nM; IC50 ([3]; resistant, N=4 samples, read-out: IC50 maximum, resistant samples): > 1000 nM; IC50 ([3]; resistant, N=4 samples, read-out: IC50 minimum, resistant samples): 888 nM; IC50 ([3]; sensitive, N=26, read-out: IC50 maximum, sensitive samples): 532 nM; IC50 ([3]; sensitive, N=26, read-out: IC50 median, sensitive samples): 172 nM; IC50 ([3]; sensitive, N=26, read-out: IC50 minimum, sensitive samples): 3.8 nM; sensitive samples as share of the tested samples ([3]; classified against activity on normal hematopoietic progenitors): 86.7%; AML cell samples displaying resistance in the high-risk cytogenetic group ([3]; high-risk group: patients 4, 11, 14, 19, 21, 23, 25, 27, 28, 29): 3; sensitivity of patient sample 11 ([3]; patient sample 11): highly sensitive; activity rating (KG1a cells; 10 mg/kg): highly active (ΔT/ΔC<0: highly active); animals with complete regression (KG1a cells; 10 mg/kg): 10/10; ΔT/ΔC (KG1a cells; 10 mg/kg daily IV day 5-13 then IP to day 31): −4.99%; cures (KG1a cells; 10 mg/kg): 80%; activity rating (KG1a cells; 17 mg/kg): highly active (ΔT/ΔC<0: highly active); animals with complete regression (KG1a cells; 17 mg/kg): 10/10; ΔT/ΔC (KG1a cells; 17 mg/kg daily IV day 5-13 then IP to day 31): −4.70%; body weight loss at nadir (KG1a cells; 17 mg/kg daily IV day 5-13 then IP, day 22, reversible): 16.2%; cures (KG1a cells; 17 mg/kg): 60%

With `Nc1ccn([C@@H]2O[C@H](CO)[C@@H](O)[C@@H]2O)c(=O)n1` [Cytarabine, cytarabine, reference compound] as the compound, how does the LCK-g (CML-T1) read?
The LCK-g was 0.9.

What about the CR (KG1 cells; [4]) of the same compound?
The CR was “no”.

And the cures (KG1 cells; [4])?
Its cures is “no”.

And the “log cell kill-gross (LCK-g)” value (KG1 cells; [4])?
Its value is 1.6.

And the PR (KG1 cells; [4])?
The PR was “no”.
